# Assay results: patent US20060069132A1, “Azolecarboxamide herbicides” (priority 2004, published 2006)
# Experiments:
# Test in all cases: Test J Compounds 2 and 6 alone and in combination with other herbicides, foliage spray
# Conditions in all cases: applied alone
# barnyardgrass (ECHCG) = type: in vivo, Echinochloa crus-galli; design: key: percentage herbicidal effect (observed)
# Description: (§1) Colby's Equation was used to calculate the expected additive herbicidal effect of the mixtures of Compound 6 with Harmony® Extra (i.e. a 2:1 mixture by weight of thifensulfuron-methyl and tribenuron-methyl). Colby's Equation (Colby, S. R. “Calculating Synergistic and Antagonistic Responses of Herbicide Combinations,” Weeds, 15(1), pp 20-22 (1967)) calculates the expected additive effect of herbicidal mixtures, and for two active ingredients is of the form: Pa+b=Pa+Pb−(PaPb/100) wherein • Pa+b is the percentage effect of the mixture expected from additive contribution of the individual components, • Pa is the observed percentage effect of the first active ingredient at the same use rate as in the mixture, and • Pb is the observed percentage effect of the second active ingredient at the same use rate as in the mixture.
# (§2) Seeds of test plants consisting of barnyardgrass (ECHCG; Echinochloa crus-galli (L.) Beauv.), blackgrass (ALOMY; Alopecurus myosuroides Huds.), Surinam grass (BRADC; Urochloa decumbens (Staph) R. D. Webster, previously named Brachiaria decumbens Stapf), cocklebur (XANST, Xanthium strumarium L.), corn (ZEAMD, Zea mays L. cv. ‘Pioneer 33G26’), large crabgrass (DIGSA, Digitaria sanguinalis (L.) Scop.), giant foxtail (SETFA, Setaria faberi Herrm.), lambsquarters (CHEAL, Chenopodium album L.), morningglory (IPOCO, Ipomoea coccinea L.), pigweed (AMARE, Amaranthus retroflexus L.), velvetleaf (ABUTH, Abutilon theophrasti Medik.) wheat (TRZAS, Triticum aestivum L. cv. ‘Recital’) and wild oat (AVEFA, Avena fatua L.) were planted in Redi-Earth® planting medium (Scotts Company, 14111 Scottslawn Road, Marysville, Ohio 43041) comprising spaghnum peat moss and vermiculite. Seeds of small-seeded species were planted about 1 cm deep; larger seeds were planted about 2.5 cm deep. Plants were grown in a greenhouse using supplemental lighting to maintain a photoperiod of about 14 hours; daytime and nighttime temperatures were about 24-30° C. and 22-25° C., respectively. Balanced fertilizer was applied through the watering system. The plants were grown for 7 to 11 days so that at time of treatment the plants ranged in height from 2 to 18 cm (1- to 4-leaf stage). Treatments consisted of Compounds 2 and 6 (technical material), atrazine (90DF), terbacil (Sinbar® 80DF), hexazinone (Velpar® 75WG), diuron (Karmex® 80WP) and paraquat (Gramoxone® Extra, 37%) alone and in combination, suspended or dissolved in an aqueous solvent comprising a nonionic surfactant and applied as a foliage spray using a volume of 541 L/ha. Each treatment was triply replicated. […] Treated plants and controls were maintained in the greenhouse and watered as needed with care to not wet the foliage for the first 24 hours after treatment. The effects on the plants 15 days after treatment were visually compared to untreated controls. Plant response ratings, listed in Table J as the means of the thee replicates, are based on a scale of 0 to 100 where 0 is no effect and 100 is complete control. Also listed in Table J are the expected effects for the mixtures calculated using Colby's Equation.
# blackgrass (ALOMY) = type: in vivo, Alopecurus myosuroides; design: key: 0 = no effect, 100 = complete control
# Description: as §1, §2
# Surinam grass (BRADC) = type: in vivo, Urochloa decumbens; design: key: 0 = no effect, 100 = complete control
# Description: as §1, §2
# giant foxtail (SETFA) = type: in vivo, Setaria faberi; design: key: 0 = no effect, 100 = complete control
# Description: as §2
# morningglory (IPOCO) = type: in vivo, Ipomoea coccinea; design: key: 0 = no effect, 100 = complete control
# Description: as §2
# lambsquarters (CHEAL) = type: in vivo, Chenopodium album; design: key: % herbicidal effect (observed)
# Description: as §1, §2
# wild oat (AVEFA) = type: in vivo, Avena fatua; design: key: 0 = no effect, 100 = complete control
# Description: as §1, §2
# cocklebur (XANST) = type: in vivo, Xanthium strumarium; design: key: 0 = no effect, 100 = complete control
# Description: as §2
# large crabgrass (DIGSA) = type: in vivo, Digitaria sanguinalis; design: key to DIGSA Obsd.: 0 = no effect, 100 = complete control
# Description: as §1, §2
# wheat (TRZAS) = type: in vivo, Triticum aestivum; design: key: 0 = no effect, 100 = complete control
# Description: as §1, §2
# velvetleaf (ABUTH) = type: in vivo, Abutilon theophrasti; design: key: 0 = no effect, 100 = complete control
# Description: as §1, §2
# corn (ZEAMD) = type: in vivo, Zea mays; design: key: percentage herbicidal effect (observed)
# Description: as §1, §2
# pigweed (AMARE) = type: in vivo, Amaranthus retroflexus; design: key: 0 = no effect, 100 = complete control
# Description: as §1, §2
structure (smiles),measurement,setting,value
CN(C)c1nc(=O)n(C2CCCCC2)c(=O)n1C [hexazinone],ECHCG Obsd.,barnyardgrass (ECHCG); 100 g a.i./ha,15
same,ECHCG Obsd.,barnyardgrass (ECHCG); 200 g a.i./ha,53
same,ALOMY Obsd.,blackgrass (ALOMY); 100 g a.i./ha,40
same,ALOMY Obsd.,blackgrass (ALOMY); 200 g a.i./ha,78
same,BRADC Obsd.,Surinam grass (BRADC); 100 g a.i./ha,62
same,BRADC Obsd.,Surinam grass (BRADC); 200 g a.i./ha,70
same,SETFA Obsd.,giant foxtail (SETFA); 100 g a.i./ha,28
same,SETFA Obsd.,giant foxtail (SETFA); 200 g a.i./ha,45
same,IPOCO Obsd.,morningglory (IPOCO); 100 g a.i./ha,92
same,IPOCO Obsd.,morningglory (IPOCO); 200 g a.i./ha,100
same,CHEAL Obsd.,lambsquarters (CHEAL); 100 g a.i./ha,78
same,CHEAL Obsd.,lambsquarters (CHEAL); 200 g a.i./ha,87
same,AVEFA Obsd.,wild oat (AVEFA); 100 g a.i./ha,53
same,AVEFA Obsd.,wild oat (AVEFA); 200 g a.i./ha,62
same,XANST Obsd.,cocklebur (XANST); 100 g a.i./ha,100
same,XANST Obsd.,cocklebur (XANST); 200 g a.i./ha,100
same,DIGSA Obsd.,large crabgrass (DIGSA); 100 g a.i./ha,38
same,DIGSA Obsd.,large crabgrass (DIGSA); 200 g a.i./ha,53
same,TRZAS Obsd.,wheat (TRZAS); 100 g a.i./ha,35
same,TRZAS Obsd.,wheat (TRZAS); 200 g a.i./ha,60
same,ABUTH Obsd.,velvetleaf (ABUTH); 100 g a.i./ha,82
same,ABUTH Obsd.,velvetleaf (ABUTH); 200 g a.i./ha,77
same,ZEAMD Obsd.,corn (ZEAMD); 100 g a.i./ha,45
same,ZEAMD Obsd.,corn (ZEAMD); 200 g a.i./ha,53
same,AMARE Obsd.,pigweed (AMARE); 100 g a.i./ha,88
same,AMARE Obsd.,pigweed (AMARE); 200 g a.i./ha,80
C[n+]1ccc(-c2cc[n+](C)cc2)cc1 [paraquat],ECHCG Obsd.,barnyardgrass (ECHCG); 31 g a.i./ha,45
same,ECHCG Obsd.,barnyardgrass (ECHCG); 62 g a.i./ha,77
same,ALOMY Obsd.,blackgrass (ALOMY); 31 g a.i./ha,60
same,ALOMY Obsd.,blackgrass (ALOMY); 62 g a.i./ha,73
same,BRADC Obsd.,Surinam grass (BRADC); 31 g a.i./ha,67
same,BRADC Obsd.,Surinam grass (BRADC); 62 g a.i./ha,95
same,SETFA Obsd.,giant foxtail (SETFA); 31 g a.i./ha,72
same,SETFA Obsd.,giant foxtail (SETFA); 62 g a.i./ha,88
same,IPOCO Obsd.,morningglory (IPOCO); 31 g a.i./ha,58
same,IPOCO Obsd.,morningglory (IPOCO); 62 g a.i./ha,90
same,CHEAL Obsd.,lambsquarters (CHEAL); 31 g a.i./ha,95
same,CHEAL Obsd.,lambsquarters (CHEAL); 62 g a.i./ha,100
same,AVEFA Obsd.,wild oat (AVEFA); 31 g a.i./ha,42
same,AVEFA Obsd.,wild oat (AVEFA); 62 g a.i./ha,63
same,XANST Obsd.,cocklebur (XANST); 31 g a.i./ha,100
same,XANST Obsd.,cocklebur (XANST); 62 g a.i./ha,87
same,DIGSA Obsd.,large crabgrass (DIGSA); 31 g a.i./ha,78
same,DIGSA Obsd.,large crabgrass (DIGSA); 62 g a.i./ha,85
same,TRZAS Obsd.,wheat (TRZAS); 31 g a.i./ha,35
same,TRZAS Obsd.,wheat (TRZAS); 62 g a.i./ha,83
same,ABUTH Obsd.,velvetleaf (ABUTH); 31 g a.i./ha,70
same,ABUTH Obsd.,velvetleaf (ABUTH); 62 g a.i./ha,92
same,ZEAMD Obsd.,corn (ZEAMD); 31 g a.i./ha,43
same,ZEAMD Obsd.,corn (ZEAMD); 62 g a.i./ha,63
same,AMARE Obsd.,pigweed (AMARE); 31 g a.i./ha,90
same,AMARE Obsd.,pigweed (AMARE); 62 g a.i./ha,100
CN(C)C(=O)Nc1ccc(Cl)c(Cl)c1 [diuron],ECHCG Obsd.,barnyardgrass (ECHCG); 250 g a.i./ha,62
same,ECHCG Obsd.,barnyardgrass (ECHCG); 500 g a.i./ha,98
same,ALOMY Obsd.,blackgrass (ALOMY); 250 g a.i./ha,25
same,ALOMY Obsd.,blackgrass (ALOMY); 500 g a.i./ha,43
same,BRADC Obsd.,Surinam grass (BRADC); 250 g a.i./ha,68
same,BRADC Obsd.,Surinam grass (BRADC); 500 g a.i./ha,85
same,SETFA Obsd.,giant foxtail (SETFA); 250 g a.i./ha,35
same,SETFA Obsd.,giant foxtail (SETFA); 500 g a.i./ha,67
same,IPOCO Obsd.,morningglory (IPOCO); 250 g a.i./ha,92
same,IPOCO Obsd.,morningglory (IPOCO); 500 g a.i./ha,100
same,CHEAL Obsd.,lambsquarters (CHEAL); 250 g a.i./ha,98
same,CHEAL Obsd.,lambsquarters (CHEAL); 500 g a.i./ha,100
same,AVEFA Obsd.,wild oat (AVEFA); 250 g a.i./ha,15
same,AVEFA Obsd.,wild oat (AVEFA); 500 g a.i./ha,47
same,XANST Obsd.,cocklebur (XANST); 250 g a.i./ha,93
same,XANST Obsd.,cocklebur (XANST); 500 g a.i./ha,100
same,DIGSA Obsd.,large crabgrass (DIGSA); 250 g a.i./ha,68
same,DIGSA Obsd.,large crabgrass (DIGSA); 500 g a.i./ha,63
same,TRZAS Obsd.,wheat (TRZAS); 250 g a.i./ha,30
same,TRZAS Obsd.,wheat (TRZAS); 500 g a.i./ha,40
same,ABUTH Obsd.,velvetleaf (ABUTH); 250 g a.i./ha,77
same,ABUTH Obsd.,velvetleaf (ABUTH); 500 g a.i./ha,100
same,ZEAMD Obsd.,corn (ZEAMD); 250 g a.i./ha,20
same,ZEAMD Obsd.,corn (ZEAMD); 500 g a.i./ha,28
same,AMARE Obsd.,pigweed (AMARE); 250 g a.i./ha,95
same,AMARE Obsd.,pigweed (AMARE); 500 g a.i./ha,100
